# From patent US11214561B2, “Histone methyltransferase EZH2 inhibitor, preparation method and pharmaceutical use thereof” (ANCUREALL PHARMACEUTICAL (SHANGHAI) CO., LTD., priority 2017, dated 2022)
# Key:
# Pfeiffer (EZH2 A677G) = assay: In vitro 50% growth inhibition (GI50), MTT/CCK8, Pfeiffer cells; format: cell-based, Human; conditions: for GI50: Homo sapiens, Pfeiffer, 240 h, Drug treatment for 10 days
# Description: (§1) In the present invention, a representative tumor cell line was selected to determine the cell growth inhibition activity of the present compound. Cell culture conditions and methods were in accordance with the requirements for each cell lines. The cells were subcultured in vitro for less than 3 generations each time, and as required, monoclone purification and identification of cell lines could be carried out.
# (§2) The cell culture media used were RPMI1640 (Gibco) comprising 5-20% of fetal bovine serum (Gibco), 1% of double-antibiotic and 2 mM of glutamine.
# (§3) Suspension culture cells were collected by centrifugation (1700 rpm, 3 minutes), and the supernatant was discarded and the cells were counted. According to each cell growth cycle, different concentrations of cells were prepared (1-10×10^4 cells per ml) and added to 96-well plates (Corning) with 100 μl per well, and then incubated overnight at 37° C., 5% CO2. The next day, the test compound was added to the cultured cells (2 wells in parallel). The final concentration of the solvent was less than 1/1,000. The cells were further cultured for 6 to 12 days and assayed by MTT.
# (§4) The compound was stored at a concentration of 10 mM at −20° C. and diluted to two-fold or 10-fold series prior to use.
# (§5) For the suspension culture cells, CCK8 was directly added to 10% of the final concentration. The cells were continually incubated for […].
# (§6) The experiments were repeated 3 times and a statistical analysis of data was conducted.
# Karpas-422 (EZH2 Y641N) = assay: In vitro 50% growth inhibition (GI50), MTT/CCK8, Karpas-422 cells; format: cell-based; conditions: Homo sapiens, KARPAS-422, 144 h; Drug treatment for 6 days
# Description: as §1, §2, §3, §4, §5, §6
# SU-DHL-8 (EZH2 WT) = assay: In vitro 50% growth inhibition (GI50), MTT/CCK8, SU-DHL-8 cells; format: cell-based; conditions: Homo sapiens, SU-DHL-8, 144 h; Drug treatment for 6 days
# Description: as §1, §2, §3, §4, §5, §6
SMILES,GI50 (Karpas-422 (EZH2 Y641N)) [nM],GI50 (SU-DHL-8 (EZH2 WT)) [nM],GI50 (Pfeiffer (EZH2 A677G)) [nM],"growth inhibitory activity / GI50 level against Pfeiffer, in words (Pfeiffer (EZH2 A677G); EZH2 A677G mutant cells Pfeiffer)"
"C=CC(=O)N1CCC(N(CC)c2cc(-c3ccc(CN4CCOCC4)cc3)cc(C(=O)NCc3c(C)cc(C)[nH]c3=O)c2C)C1 (stereo not shown) [Example 20, N-(4,6-dimethyl-2-oxo-1,2-dihydro-pyridin-3-ylmethyl)-5-[(1-acryloyl-pyrrolidin-3-yl)-ethyl-amino]-4′-(morpholin-4-ylmethyl)-4-methyl-biphenyl-3-carboxamide]",100 to 1000,> 1000,1 to 10,–
"C=CC(=O)N1CCC(N(CC)c2cc(-c3cccc(CN4CCCN(C)CC4)c3)cc(C(=O)NCc3c(C)cc(C)[nH]c3=O)c2C)CC1 [Example 75, N-(4,6-dimethyl-2-oxo-1,2-dihydro-pyridin-3-ylmethyl)-5-[(1-acryloyl-piperidin-4-yl)-ethyl-amino]-4-methyl-3′-(4-methylhomopiperazin-1-ylmethyl)-[1,1′-biphenyl]-3-carboxamide]",10 to 100,> 1000,1 to 10,–
"C=CC(=O)N1CCC(N(CC)c2cc(F)cc(C(=O)NCc3c(C)cc(C)[nH]c3=O)c2C)C1 (stereo not shown) [Example 2, 3-[(1-acryloyl-pyrrolidin-3-yl)-ethyl-amino]-5-fluoro-N-(4,6-dimethyl-2-oxo-1,2-dihydro-pyridin-3-ylmethyl)-2-methyl-benzamide]",10 to 100,> 1000,10 to 100,–
CC#CC(=O)N1CCC(N(CC)c2cc(Br)cc(C(=O)NCc3c(C)cc(C)[nH]c3=O)c2C)C1 (stereo not shown) [Example 15],10 to 100,> 1000,1 to 10,–
"C=CC(=O)N1CCC(N(CC)c2cc(-c3ccc(N4CCN(C)CC4)nc3)cc(C(=O)NCc3c(C)cc(C)[nH]c3=O)c2C)C1 (stereo not shown) [Example 53, N-(4,6-dimethyl-2-oxo-1,2-dihydro-pyridin-3-ylmethyl)-3-[(1-acryloyl-pyrrolidin-3-yl)-ethyl-amino]-2-methyl-5-[6-(4-methylpiperazin-1-yl)-pyridin-3-yl]-benzamide]",10 to 100,> 1000,1 to 10,–
"C=CC(=O)N1CCC(N(CC)c2cc(C#CCN3CCOCC3)cc(C(=O)NCc3c(C)cc(C)[nH]c3=O)c2C)C1 (stereo not shown) [Example 51, N-(4,6-dimethyl-2-oxo-1,2-dihydro-pyridin-3-ylmethyl)-3-[(1-acryloyl-pyrrolidin-3-yl)-ethyl-amino]-2-methyl-5-[3-(morpholin-4-yl)-propyn-1-yl]-benzamide]",10 to 100,> 1000,1 to 10,–
"C=CC(=O)N1CCC(N(CC)c2cc(-c3ccc(CN4CCC5(CCCO5)CC4)cc3)cc(C(=O)NCc3c(C)cc(C)[nH]c3=O)c2C)CC1 [Example 87, N-(4,6-dimethyl-2-oxo-1,2-dihydro-pyridin-3-ylmethyl)-5-[(1-acryloyl-piperidin-4-yl)-ethyl-amino]-4-methyl-4′-(1-oxa-8-aza-spiro[4.5]decan-8-ylmethyl)-[1,1′-biphenyl]-3-carboxamide]",10 to 100,> 1000,< 1,subnanomolar level
"C=CC(=O)N1CCC(N(CC)c2cc(-c3cccc(CN4CCOCC4)c3)cc(C(=O)NCc3c(C)cc(C)[nH]c3=O)c2C)CC1 [Example 70, N-(4,6-dimethyl-2-oxo-1,2-dihydro-pyridin-3-ylmethyl)-5-[(1-acryloyl-piperidin-4-yl)-ethyl-amino]-4-methyl-3′-(morpholin-4-ylmethyl)-[1,1′-biphenyl]-3-carboxamide]",10 to 100,> 1000,1 to 10,–
"C=CC(=O)N1CCC(N(CC)c2cc(-c3ccc(CN4CCCCC4)cc3)cc(C(=O)NCc3c(C)cc(C)[nH]c3=O)c2C)C1 (stereo not shown) [Example 18, N-(4,6-dimethyl-2-oxo-1,2-dihydro-pyridin-3-ylmethyl)-5-[(1-acryloyl-pyrrolidin-3-yl)-ethyl-amino]-4′-(piperidin-1-ylmethyl)-4-methyl-biphenyl-3-carboxamide]",10 to 100,> 1000,1 to 10,–

# More lines, main results first:
GI50 (Karpas-422 (EZH2 Y641N)) [nM],GI50 (SU-DHL-8 (EZH2 WT)) [nM],SMILES,GI50 (Pfeiffer (EZH2 A677G)) [nM],"growth inhibitory activity / GI50 level against Pfeiffer, in words (Pfeiffer (EZH2 A677G); EZH2 A677G mutant cells Pfeiffer)"
10 to 100,> 1000,"C=CC(=O)N1CCC(N(CC)c2cc(Br)cc(C(=O)NCc3c(C)cc(C)[nH]c3=O)c2C)C1 (stereo not shown) [Example 1, 3-[(1-acryloyl-pyrrolidin-3-yl)-ethyl-amino]-5-bromo-N-(4,6-dimethyl-2-oxo-1,2-dihydro-pyridin-3-ylmethyl)-2-methyl-benzamide]",1 to 10,–
> 1000,> 1000,"C=CC(=O)N1CCC(N(CCCC)c2cc(Br)cc(C(=O)NCc3c(C)cc(C)[nH]c3=O)c2C)C1 (stereo not shown) [Example 9, 3-[(1-acryloyl-pyrrolidin-3-yl)-butyl-amino]-5-bromo-N-(4,6-dimethyl-2-oxo-1,2-dihydro-pyridin-3-ylmethyl)-2methyl-benzamide]",10 to 100,–
100 to 1000,> 1000,"C=CC(=O)N1CCC(N(CC)c2cc(-c3ccc(OCCN4CCOCC4)cc3)cc(C(=O)NCc3c(C)cc(C)[nH]c3=O)c2C)C1 (stereo not shown) [Example 48, N-(4,6-dimethyl-2-oxo-1,2-dihydro-pyridin-3-ylmethyl)-5-[(1-acryloyl-pyrrolidin-3-yl)-ethyl-amino]-4-methyl-4′-[2-(morpholin-4-yl)-ethoxy]-[1,1′-biphenyl]-3-carboxamide]",10 to 100,–
100 to 1000,> 1000,"C=CC(=O)N1CCC(N(CC)c2cc(-c3ccc(CN4CCOCC4)c(Cl)c3)cc(C(=O)NCc3c(C)cc(C)[nH]c3=O)c2C)C1 (stereo not shown) [Example 21, N-(4,6-dimethyl-2-oxo-1,2-dihydro-pyridin-3-ylmethyl)-5-[(1-acryloyl-pyrrolidin-3-yl)-ethyl-amino]-3′-chloro-4′-(morpholin-4-ylmethyl)-4-methyl-biphenyl-3-carboxamide]",1 to 10,–
100 to 1000,> 1000,"C=CC(=O)N1CCC(N(CC)c2cc(OC)cc(C(=O)NCc3c(C)cc(C)[nH]c3=O)c2C)C1 (stereo not shown) [Example 16, 3-[(1-acryloyl-pyrrolidin-3-yl)-ethyl-amino]-5-methoxy-N-(4,6-dimethyl-2-oxo-1,2-dihydrogen-pyridin-3-ylmethyl)-2methyl-benzamide]",10 to 100,–
100 to 1000,> 1000,"C=CC(=O)N1CCC(N(CC)c2cc(-c3ccc(CN(C)C)cc3)cc(C(=O)NCc3c(C)cc(C)[nH]c3=O)c2C)C1 (stereo not shown) [Example 19, N-(4,6-dimethyl-2-oxo-1,2-dihydro-pyridin-3-ylmethyl)-5-[(1-acryloyl-pyrrolidin-3-yl)-ethyl-amino]-4′-(dimethylaminomethyl)-4-methyl-biphenyl-3-carboxamide]",10 to 100,–
10 to 100,> 1000,"C=CC(=O)N1CCC(N(CC)c2cc(-c3ccc(CN4CC(OC)C4)cc3)cc(C(=O)NCc3c(C)cc(C)[nH]c3=O)c2C)CC1 [Example 76, N-(4,6-dimethyl-2-oxo-1,2-dihydro-pyridin-3-ylmethyl)-5-[(1-acryloyl-piperidin-4-yl)-ethyl-amino]-4-methyl-4′-(3-methoxy-1-azetidinylmethyl)-[1,1′-biphenyl]-3-carboxamide]",1 to 10,–
10 to 100,> 1000,"C=CC(=O)N1CCC(N(CC)c2cc(-c3ccc(CN4CCOCC4)c(Cl)c3)cc(C(=O)NCc3c(C)cc(C)[nH]c3=O)c2C)CC1 [Example 71, N-(4,6-dimethyl-2-oxo-1,2-dihydro-pyridin-3-ylmethyl)-5-[(1-acryloyl-piperidin-4-yl)-ethyl-amino]-3′-chloro-4-methyl-4′-(morpholin-4-ylmethyl)-[1,1′-biphenyl]-3-carboxamide]",1 to 10,–
10 to 100,> 1000,"C=CC(=O)N1CCC(N(CC)c2cc(Br)cc(C(=O)NCc3c(C)cc(C)[nH]c3=O)c2C)CC1 [Example 6, 3-[(1-acryloyl-piperidin-4-yl)-ethyl-amino]-5-bromo-N-(4,6-dimethyl-2-oxo-1,2-dihydro-pyridin-3-ylmethyl)-2-methyl-benzamide]",1 to 10,–
10 to 100,> 1000,"C=CC(=O)N1CCC(N(CC)c2cc(-c3ccc(CN4CCOCC4)c(F)c3)cc(C(=O)NCc3c(C)cc(C)[nH]c3=O)c2C)CC1 [Example 62, N-(4,6-dimethyl-2-oxo-1,2-dihydro-pyridin-3-ylmethyl)-5-[(1-acryloyl-piperidin-4-yl)-ethyl-amino]-3′-fluoro-4-methyl-4′-(morpholin-4-ylmethyl)-[1,1′-biphenyl]-3-carboxamide]",1 to 10,–
10 to 100,> 1000,"C=CC(=O)N1CCC(N(CC)c2cc(-c3cccc(CN4CCOCC4)c3)cc(C(=O)NCc3c(C)cc(C)[nH]c3=O)c2C)C1 (stereo not shown) [Example 30, N-(4,6-dimethyl-2-oxo-1,2-dihydro-pyridin-3-ylmethyl)-5-[(1-acryloyl-pyrrolidin-3-yl)-ethyl-amino]-4-methyl-3′-(morpholin-4-yl)-methyl-[1,1′-biphenyl]-3-carboxamide]",1 to 10,–
